# Measurements from article PMC3849439, “Peptides Corresponding to the Predicted Heptad Repeat 2 Domain of the Feline Coronavirus Spike Protein Are Potent Inhibitors of Viral Infection” (PLoS ONE, 2013).
# Entries after “also recorded” stand apart in the source; their conditions may differ.
# Legend:
# [1] = test system: Feline coronavirus type II NTU156 strain; settings: for Inhibition of viral titer (%): highest concentration tested 20 μM, NTU156 MOI 0.1, fcwf-4 cells, triplicate wells; for IC50: NTU156 at MOI 0.1 preincubated with peptide 1 h, then on fcwf-4 cells 1 h, supernatant collected 48 h postinfection and titrated, CPE at 72 h, IC50 by interpolation
# fcwf-4 cells = assay: MTT cytotoxicity assay; settings: 72 h at 37°C, 6.25-200 μM, absorbance 570 nm, triplicate
# [2] = test system: Feline coronavirus type II NTU156 strain; assay: Combination of FP5 with human IFN-α, viral titer by plaque reduction assay; assay type: cell-based; settings: for Viral titer reduction, agent alone: supernatant collected after 48 h, triplicate
Compound,Inhibition of viral titer (%) [1],CC50 (fcwf-4 cells),IC50 [1],"Viral titer reduction, combination ([2]; 20 μM FP5 with 10 to 1000 IU IFN-α, or 10 μM FP5 with 1000 IU IFN-α, NTU156 MOI 0.1, fcwf-4 cells, 48 h)","Inhibitory effect of the combination (in words) ([2]; 20 μM FP5 with 10 to 1000 IU IFN-α, or 10 μM FP5 with 1000 IU IFN-α, two-way analysis of variance P < 0.05)",Inhibitory effect of the combination (in words) ([2]; 10 units of IFN-α combined with 20 μM FP5),"Viral titer reduction, agent alone ([2]; FP5 20 μM alone, NTU156 MOI 0.1, fcwf-4 cells)","Viral titer reduction, agent alone ([2]; IFN-α 1000 IU alone, preincubated with cells 24 h, NTU156 MOI 0.1, fcwf-4 cells)"
CC[C@H](C)[C@H](NC(=O)[C@H](CCC(=O)O)NC(=O)CNC(=O)[C@@H](NC(=O)[C@H](CC(C)C)NC(=O)[C@H](CC(N)=O)NC(=O)[C@H](CC(C)C)NC(=O)[C@H](Cc1ccc(O)cc1)NC(=O)[C@@H](NC(=O)[C@H](C)NC(=O)[C@H](CC(N)=O)NC(=O)[C@@H](N)Cc1ccccc1)[C@@H](C)O)[C@@H](C)O)C(=O)N[C@@H](CC(=O)O)C(=O)N[C@@H](CC(=O)O)C(=O)N[C@@H](CC(C)C)C(=O)N[C@@H](CCC(=O)O)C(=O)N[C@@H](Cc1ccccc1)C(=O)N[C@@H](CCCNC(=N)N)C(=O)N[C@@H](CO)C(=O)N[C@@H](CCC(=O)O)C(=O)N[C@@H](CCCCN)C(=O)N[C@@H](CC(C)C)C(=O)O [FP1],27%,≧200 μM,–,–,–,–,–,–
CC[C@H](C)[C@H](NC(=O)[C@H](CCC(=O)O)NC(=O)CNC(=O)[C@@H](NC(=O)[C@H](CC(C)C)NC(=O)[C@H](CC(N)=O)NC(=O)[C@H](CC(C)C)NC(=O)[C@H](Cc1ccc(O)cc1)NC(=O)[C@@H](NC(=O)[C@H](C)NC(=O)[C@H](CC(N)=O)NC(=O)[C@@H](N)Cc1ccccc1)[C@@H](C)O)[C@@H](C)O)C(=O)N[C@@H](CC(=O)O)C(=O)N[C@@H](CC(=O)O)C(=O)N[C@@H](CC(C)C)C(=O)N[C@@H](CCC(=O)O)C(=O)N[C@@H](Cc1ccccc1)C(=O)N[C@@H](CCCNC(=N)N)C(=O)N[C@@H](CO)C(=O)N[C@@H](CCC(=O)O)C(=O)N[C@@H](CCCCN)C(=O)N[C@@H](CC(C)C)C(=O)N[C@@H](Cc1c[nH]cn1)C(=O)N[C@@H](CC(N)=O)C(=O)N[C@H](C(=O)N[C@H](C(=O)N[C@H](C(=O)N[C@@H](CCC(=O)O)C(=O)N[C@@H](CC(C)C)C(=O)O)C(C)C)[C@@H](C)O)[C@@H](C)O [FP2],29%,≧200 μM,–,–,–,–,–,–
CC[C@H](C)[C@H](NC(=O)[C@H](CC(N)=O)NC(=O)[C@H](CC(=O)O)NC(=O)[C@@H](NC(=O)[C@H](CC(C)C)NC(=O)[C@@H](NC(=O)[C@H](C)NC(=O)[C@H](CC(C)C)NC(=O)[C@H](CCC(=O)O)NC(=O)[C@@H](NC(=O)[C@@H](NC(=O)[C@@H](NC(=O)[C@H](CC(N)=O)NC(=O)[C@H](Cc1c[nH]cn1)NC(=O)[C@H](CC(C)C)NC(=O)[C@H](CCCCN)NC(=O)[C@H](CCC(=O)O)NC(=O)[C@H](CO)NC(=O)[C@H](CCCNC(=N)N)NC(=O)[C@H](Cc1ccccc1)NC(=O)[C@H](CCC(=O)O)NC(=O)[C@H](CC(C)C)NC(=O)[C@H](CC(=O)O)NC(=O)[C@H](CC(=O)O)NC(=O)[C@@H](NC(=O)[C@H](CCC(=O)O)NC(=O)CNC(=O)[C@@H](NC(=O)[C@H](CC(C)C)NC(=O)[C@H](CC(N)=O)NC(=O)[C@H](CC(C)C)NC(=O)[C@H](Cc1ccc(O)cc1)NC(=O)[C@@H](NC(=O)[C@H](C)NC(=O)[C@H](CC(N)=O)NC(=O)[C@@H](N)Cc1ccccc1)[C@@H](C)O)[C@@H](C)O)[C@@H](C)CC)[C@@H](C)O)[C@@H](C)O)C(C)C)[C@@H](C)CC)[C@@H](C)CC)C(=O)O [FP3],72%,≧200 μM,14200 nM,–,–,–,–,–
CC[C@H](C)[C@H](NC(=O)[C@H](C)NC(=O)[C@H](CC(C)C)NC(=O)[C@H](CCC(=O)O)NC(=O)[C@@H](NC(=O)[C@@H](NC(=O)[C@@H](NC(=O)[C@H](CC(N)=O)NC(=O)[C@H](Cc1c[nH]cn1)NC(=O)[C@H](CC(C)C)NC(=O)[C@H](CCCCN)NC(=O)[C@H](CCC(=O)O)NC(=O)[C@H](CO)NC(=O)[C@H](CCCNC(=N)N)NC(=O)[C@H](Cc1ccccc1)NC(=O)[C@H](CCC(=O)O)NC(=O)[C@H](CC(C)C)NC(=O)[C@H](CC(=O)O)NC(=O)[C@H](CC(=O)O)NC(=O)[C@@H](NC(=O)[C@H](CCC(=O)O)NC(=O)CNC(=O)[C@@H](NC(=O)[C@H](CC(C)C)NC(=O)[C@H](CC(N)=O)NC(=O)[C@H](CC(C)C)NC(=O)[C@H](Cc1ccc(O)cc1)NC(=O)[C@@H](NC(=O)[C@H](C)NC(=O)[C@H](CC(N)=O)NC(=O)[C@@H](N)Cc1ccccc1)[C@@H](C)O)[C@@H](C)O)[C@@H](C)CC)[C@@H](C)O)[C@@H](C)O)C(C)C)C(=O)N[C@@H](CC(C)C)C(=O)N[C@H](C(=O)N[C@@H](CC(=O)O)C(=O)N[C@@H](CC(N)=O)C(=O)N[C@H](C(=O)N[C@@H](CC(N)=O)C(=O)N[C@@H](CC(N)=O)C(=O)N[C@H](C(=O)N[C@@H](CC(C)C)C(=O)N[C@H](C(=O)N[C@@H](CC(N)=O)C(=O)N[C@@H](CC(C)C)C(=O)O)C(C)C)[C@@H](C)O)[C@@H](C)CC)[C@@H](C)CC [FP4],93%,≧200 μM,1800 nM,–,–,–,–,–
CC[C@H](C)[C@H](NC(=O)[C@H](C)NC(=O)[C@H](CC(C)C)NC(=O)[C@H](CCC(=O)O)NC(=O)[C@@H](NC(=O)[C@@H](NC(=O)[C@@H](NC(=O)[C@H](CC(N)=O)NC(=O)[C@H](Cc1c[nH]cn1)NC(=O)[C@H](CC(C)C)NC(=O)[C@H](CCCCN)NC(=O)[C@H](CCC(=O)O)NC(=O)[C@H](CO)NC(=O)[C@H](CCCNC(=N)N)NC(=O)[C@H](Cc1ccccc1)NC(=O)[C@H](CCC(=O)O)NC(=O)[C@H](CC(C)C)NC(=O)[C@H](CC(=O)O)NC(=O)[C@H](CC(=O)O)NC(=O)[C@@H](NC(=O)[C@H](CCC(=O)O)NC(=O)CNC(=O)[C@@H](NC(=O)[C@H](CC(C)C)NC(=O)[C@H](CC(N)=O)NC(=O)[C@H](CC(C)C)NC(=O)[C@H](Cc1ccc(O)cc1)NC(=O)[C@@H](NC(=O)[C@H](C)NC(=O)[C@H](CC(N)=O)NC(=O)[C@@H](N)Cc1ccccc1)[C@@H](C)O)[C@@H](C)O)[C@@H](C)CC)[C@@H](C)O)[C@@H](C)O)C(C)C)C(=O)N[C@@H](CC(C)C)C(=O)N[C@H](C(=O)N[C@@H](CC(=O)O)C(=O)N[C@@H](CC(N)=O)C(=O)N[C@H](C(=O)N[C@@H](CC(N)=O)C(=O)N[C@@H](CC(N)=O)C(=O)N[C@H](C(=O)N[C@@H](CC(C)C)C(=O)N[C@H](C(=O)N[C@@H](CC(N)=O)C(=O)N[C@@H](CC(C)C)C(=O)N[C@@H](CCC(=O)O)C(=O)N[C@@H](Cc1c[nH]c2ccccc12)C(=O)N[C@@H](CC(C)C)C(=O)N[C@@H](CC(N)=O)C(=O)N[C@@H](CCCNC(=N)N)C(=O)N[C@H](C(=O)N[C@@H](CCC(=O)O)C(=O)O)[C@@H](C)CC)C(C)C)[C@@H](C)O)[C@@H](C)CC)[C@@H](C)CC [FP5],–,≧200 μM,1330 nM,up to 4.08 LogPFU/ml,complete inhibitory effect; also recorded: synergetic effects,complete inhibition,1.81 LogPFU/ml,–
IFN-α,–,–,–,–,–,–,–,1.46 LogPFU/ml
